Molecules are shown by their SMILES.

This test relates to human embryonic stem cell derived neural stem cells (NSCs). The test can be described thus: Neural Stem Cell Proliferation Assay (Neurogenesis Assay, ATP levels by CellTiterGlo). The format is cell-based. Conditions: 96 h, compound concentration at which 150% activity of control (100%) is reached, NSC proliferation, 4 days incubation. The procedure:
Neural Stem Cell Proliferation Assay
Neurogenic properties of small molecules are determined based on the proliferation of human embryonic stem cell derived neural stem cells (NSCs) which were derived via a dual smad inhibition as previously described (Chambers, S. M., et al., Highly efficient neural conversion of human ES and iPS cells by dual inhibition of SMAD signaling, Nature biotechnology, 2009. 27(3): p. 275-80.)
Compounds respond is measured by the increase in cells based on ATP levels
(Promega:CellTiterGlo®) after an incubation period of 4 days.
NSCs are thawed and expanded over 3 passages. On the 14th day, NSCs are seeded in Polyornithin/Laminin coated 384 well plates at a cell density of 21′000 cells/cm^2 in a media volume of 38 μl.
4 hours after cell seeding, compound solutions are added at a volume of 2 μl. Stock solutions of the compounds (water, 5% DMSO) are diluted to obtain a dose response (11 points, dilution factor is 2), ranging from 8 μM to 8 nM. Controls are run to consistently determine the neurogenic properties of the cells:
Negative (neutral) control is cell culture Media (final DMSO concentration: 0.25%).
Positive controls are: • 1. cell culture Media+100 ng/ml FGF2 (final DMSO concentration: 0.1%) • 2. cell culture Media+20 ng/ml EGF (final DMSO concentration: 0.1%) • 3. cell culture Media+100 ng/ml Wnt3a (final DMSO concentration: 0.1%)
After 4 days incubation at 37° C., 5% CO2, the amount of ATP per well is quantified. The ATP concentration is proportional to the cell number. ATP is quantified by using the Promega CellTiterGlo® kit. The CellTiterGlo® reagents contain a cell lysis buffer, a thermo stable luciferase (UltraGlo™ recombinant luciferase), magnesium and luciferin. Luciferin reacts with ATP producing oxyluciferin, AMP and light. The luminescence signal is proportional to the ATP content.
The value of negative (neutral) control is determined for each assay plate by taking the average of 16 negative control wells. The neurogenic compound response is calculated for each compound as (compound/Negative Control)*100.
The values of EC150 from the dose response curve are determined for each test compound. The EC150 is the compound concentration at which 150% activity of control (100%) is reached.
On the technique in general: In ATP-based viability assays light output follows the ATP content of the culture.
As for `NC(=O)c1cnc2cncc(-c3cc(F)c(F)c(F)c3)c2c1` [Example 4, 5-(3,4,5-Trifluorophenyl)-1,7-naphthyridine-3-carboxamide], the EC (150% of control) was 1.9 µM.
As to `NC(=O)c1cnc2cncc(-c3cccc(OC(F)(F)F)c3)c2c1` [Example 23, 5-(3-(Trifluoromethoxy)phenyl)-1,7-naphthyridine-3-carboxamide], the EC (150% of control) turned out to be 5.73 µM.
With `NC(=O)c1cnc2cncc(-c3ccc(F)cc3)c2c1` [Example 5, 5-(4-Fluorophenyl)-1,7-naphthyridine-3-carboxamide], the EC (150% of control) amounted to 1.1 µM.
`COC(=O)c1cncc2ncc(C(N)=O)cc12` [Example 24, Methyl 3-carbamoyl-1,7-naphthyridine-5-carboxylate] had an EC (150% of control) of 3.2 µM.
In the case of `CS(=O)(=O)c1cccc(CNC(=O)c2cnc3cncc(-c4ccc(Cl)cc4)c3c2)c1` [Example 19, 5-(4-Chlorophenyl)-N-(3-(methylsulfonyl)benzyl)-1,7-naphthyridine-3-carboxamide] it was 3.18 µM; in that of `NC(=O)c1cnc2cncc(-c3ccc(Cl)cc3F)c2c1` [Example 12, 5-(4-Chloro-2-fluorophenyl)-1,7-naphthyridine-3-carboxamide], 0.07 µM.
In the case of `NC(=O)c1cnc2cncc(-c3ccc(Cl)cc3Cl)c2c1` [Example 28, 5-(2,4-Dichlorophenyl)-1,7-naphthyridine-3-carboxamide] it was 0.46 µM.
`NC(=O)c1cnc2cncc(N3CCC(F)(F)CC3)c2c1` [Example 26, 5-(4,4-Difluoropiperidin-1-yl)-1,7-naphthyridine-3-carboxamide] yielded an EC (150% of control) of 2.09 µM.
With `CS(=O)(=O)CCNC(=O)c1cnc2cncc(-c3ccc(Cl)cc3F)c2c1` [Example 13, 5-(4-Chloro-2-fluorophenyl)-N-(2-(methylsulfonyl)ethyl)-1,7-naphthyridine-3-carboxamide], the EC (150% of control) was 1.51 µM.
With `NC(=O)c1cnc2cncc(-c3ccc(Cl)cc3)c2c1` [Example 1, 5-(4-Chlorophenyl)-1,7-naphthyridine-3-carboxamide] the figure was 0.09 µM.
With `NC(=O)c1cnc2cncc(N3CCOCC3)c2c1` [Example 16, 5-Morpholino-1,7-naphthyridine-3-carboxamide] the figure was 1.43 µM; with `O=C(NCC(F)(F)F)c1cnc2cncc(-c3ccc(F)cc3F)c2c1` [Example 15, 5-(2,4-Difluorophenyl)-N-(2,2,2-trifluoroethyl)-1,7-naphthyridine-3-carboxamide], 1.36 µM.
In the case of `COc1cccc(-c2cncc3ncc(C(N)=O)cc23)c1` [Example 22, 5-(3-Methoxyphenyl)-1,7-naphthyridine-3-carboxamide] it was 1.93 µM; in that of `O=C(NCC(F)(F)F)c1cnc2cncc(-c3ccccc3F)c2c1` [Example 14, 5-(2-Fluorophenyl)-N-(2,2,2-trifluoroethyl)-1,7-naphthyridine-3-carboxamide], 1.21 µM; in that of `CS(=O)(=O)c1ccc(-c2cncc3ncc(C(N)=O)cc23)cc1` [Example 9, 5-(4-(Methylsulfonyl)phenyl)-1,7-naphthyridine-3-carboxamide], 1.58 µM.
`NC(=O)c1cnc2cncc(C3=CCOCC3)c2c1` [Example 25, 5-(3,6-Dihydro-2H-pyran-4-yl)-1,7-naphthyridine-3-carboxamide] had an EC (150% of control) of 4.41 µM.
`O=C(NCC1CC1)c1cnc2cncc(-c3ccc(Cl)cc3)c2c1` [Example 20, 5-(4-Chlorophenyl)-N-(cyclopropylmethyl)-1,7-naphthyridine-3-carboxamide] yielded an EC (150% of control) of 4.24 µM.
In the case of `NC(=O)c1cnc2cncc(-c3ccc(F)cc3F)c2c1` [Example 7, 5-(2,4-Difluorophenyl)-1,7-naphthyridine-3-carboxamide] it was 0.48 µM.
With `Cc1nc2cncc(-c3ccc(Cl)cc3)c2cc1C(N)=O` [Example 11, 5-(4-Chlorophenyl)-2-methyl-1,7-naphthyridine-3-carboxamide] the figure was 0.12 µM; with `CS(=O)(=O)c1ccc(CNC(=O)c2cnc3cncc(-c4ccc(Cl)cc4)c3c2)cc1` [Example 18, 5-(4-Chlorophenyl)-N-(4-(methylsulfonyl)benzyl)-1,7-naphthyridine-3-carboxamide], 0.25 µM.
The compound `NC(=O)c1cnc2cncc(-c3ccc(F)c(F)c3)c2c1` [Example 6, 5-(3,4-Difluorophenyl)-1,7-naphthyridine-3-carboxamide] displayed an EC (150% of control) of 0.55 µM.
As to `NC(=O)c1cnc2cncc(-c3ccc(OC(F)(F)F)cc3)c2c1` [Example 2, 5-(4-(Trifluoromethoxy)phenyl)-1,7-naphthyridine-3-carboxamide], the EC (150% of control) was determined as 0.47 µM.
With `O=C(NCC(F)(F)F)c1cnc2cncc(-c3ccc(F)cc3)c2c1` [Example 17, 5-(4-Fluorophenyl)-N-(2,2,2-trifluoroethyl)-1,7-naphthyridine-3-carboxamide] the figure was 1.13 µM; with `N#Cc1ccc(-c2cncc3ncc(C(N)=O)cc23)cc1` [Example 8, 5-(4-Cyanophenyl)-1,7-naphthyridine-3-carboxamide], 1.37 µM.
With `NC(=O)c1cnc2cncc(-c3ccc(C(F)(F)F)cc3)c2c1` [Example 10, 5-(4-(Trifluoromethyl)phenyl)-1,7-naphthyridine-3-carboxamide] the figure was 0.3 µM; with `NC(=O)c1cnc2cncc(-c3ccc(Cl)nc3)c2c1` [Example 27, 5-(6-Chloropyridin-3-yl)-1,7-naphthyridine-3-carboxamide], 1.08 µM; with `NC(=O)c1cnc2cncc(-c3ccccc3F)c2c1` [Example 3, 5-(2-Fluorophenyl)-1,7-naphthyridine-3-carboxamide], 1.12 µM.
In the case of `COCCNC(=O)c1cnc2cncc(-c3ccc(Cl)cc3)c2c1` [Example 21, 5-(4-Chlorophenyl)-N-(2-methoxyethyl)-1,7-naphthyridine-3-carboxamide] it was 4.6 µM.

For the origin of these results see patent US9688675B2, “1,7-naphthyridine derivatives” (Hoffmann-La Roche Inc., priority 2013, dated 2017).
